According to PubChem BioAssay (NCI):
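How tested: cells in 96-well plates exposed to compound for 48 hours at five concentrations. GI50: concentration for 50% inhibition of growth. Definition used: TGI = concentration required for complete inhibition of growth.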

Columns and labels:
Assay in all cases: DTP human tumour cell line panel, 48 h
786-0 renal = tested on: 786-0 renal
A498 renal = tested on: A498 renal
A549 NSCLC = tested on: A549 NSCLC
BT-549 breast = tested on: BT-549 breast
CAKI-1 renal = tested on: CAKI-1 renal
CCRF-CEM leukemia = tested on: CCRF-CEM leukemia
COLO 205 colon = tested on: COLO 205 colon
DU-145 prostate = tested on: DU-145 prostate
EKVX NSCLC = tested on: EKVX NSCLC
HCC-2998 colon = tested on: HCC-2998 colon
HCT-116 colon = tested on: HCT-116 colon
HCT-15 colon = tested on: HCT-15 colon
HL-60(TB) leukemia = tested on: HL-60(TB) leukemia
HOP-62 NSCLC = tested on: HOP-62 NSCLC
HOP-92 NSCLC = tested on: HOP-92 NSCLC
HS 578T breast = tested on: HS 578T breast
HT29 colon = tested on: HT29 colon
K-562 leukemia = tested on: K-562 leukemia
KM12 colon = tested on: KM12 colon
M14 melanoma = tested on: M14 melanoma
MALME-3M melanoma = tested on: MALME-3M melanoma
MCF7 breast = tested on: MCF7 breast
MOLT-4 leukemia = tested on: MOLT-4 leukemia
NCI-H23 lung = tested on: NCI-H23 lung
NCI-H460 lung = tested on: NCI-H460 lung
NCI-H522 lung = tested on: NCI-H522 lung
NCI/ADR-RES ovarian = tested on: NCI/ADR-RES ovarian
OVCAR-3 ovarian = tested on: OVCAR-3 ovarian
OVCAR-4 ovarian = tested on: OVCAR-4 ovarian
OVCAR-5 ovarian = tested on: OVCAR-5 ovarian
OVCAR-8 ovarian = tested on: OVCAR-8 ovarian
PC-3 prostate = tested on: PC-3 prostate
RPMI-8226 leukemia = tested on: RPMI-8226 leukemia
RXF 393 renal = tested on: RXF 393 renal
SF-268 CNS = tested on: SF-268 CNS
SF-295 CNS = tested on: SF-295 CNS
SF-539 CNS = tested on: SF-539 CNS
SK-MEL-2 melanoma = tested on: SK-MEL-2 melanoma
SK-MEL-28 melanoma = tested on: SK-MEL-28 melanoma
SK-MEL-5 melanoma = tested on: SK-MEL-5 melanoma
SK-OV-3 ovarian = tested on: SK-OV-3 ovarian
SNB-19 CNS = tested on: SNB-19 CNS
SNB-75 CNS = tested on: SNB-75 CNS
SW-620 colon = tested on: SW-620 colon
T-47D breast = tested on: T-47D breast
TK-10 renal = tested on: TK-10 renal
UACC-257 melanoma = tested on: UACC-257 melanoma
UO-31 renal = tested on: UO-31 renal
ACHN renal = tested on: ACHN renal
IGROV1 ovarian = tested on: IGROV1 ovarian
LOX IMVI melanoma = tested on: LOX IMVI melanoma
MDA-MB-231 breast = tested on: MDA-MB-231 breast
MDA-MB-435 = tested on: MDA-MB-435
NCI-H226 lung = tested on: NCI-H226 lung
SN12C renal = tested on: SN12C renal
SR leukemia = tested on: SR leukemia
U251 CNS = tested on: U251 CNS
UACC-62 melanoma = tested on: UACC-62 melanoma

Work on `O=C(Cc1ccc(O)c(O)c1)NCc1c[nH]c2ccccc12` yielded a TGI (786-0 renal) greater than 100 µM, a TGI (A498 renal) greater than 100 µM and a TGI (A549 NSCLC) greater than 100 µM. For the same molecule, the TGI (BT-549 breast) was greater than 100 µM, the TGI (CAKI-1 renal) was greater than 100 µM and the TGI (CCRF-CEM leukemia) was 47.8 µM. For the same molecule, the TGI (COLO 205 colon) was greater than 100 µM, the TGI (DU-145 prostate) was greater than 100 µM and the TGI (EKVX NSCLC) was greater than 100 µM. For the same molecule, the TGI (HCC-2998 colon) was greater than 100 µM, the TGI (HCT-116 colon) was greater than 100 µM and the TGI (HCT-15 colon) was greater than 100 µM. It also gave a TGI (HL-60(TB) leukemia) of 85.7 µM, a TGI (HOP-62 NSCLC) greater than 100 µM and a TGI (HOP-92 NSCLC) greater than 100 µM. For the same molecule, the TGI (HS 578T breast) was greater than 100 µM, the TGI (HT29 colon) was greater than 100 µM and the TGI (K-562 leukemia) was greater than 100 µM. The TGI (KM12 colon) was greater than 100 µM, the TGI (M14 melanoma) was greater than 100 µM and the TGI (MALME-3M melanoma) was 76.5 µM. The TGI (MCF7 breast) was greater than 100 µM, the TGI (MOLT-4 leukemia) was greater than 100 µM and the TGI (NCI-H23 lung) was greater than 100 µM. The TGI (NCI-H460 lung) was greater than 100 µM, the TGI (NCI-H522 lung) was greater than 100 µM and the TGI (NCI/ADR-RES ovarian) was greater than 100 µM. It also gave a TGI (OVCAR-3 ovarian) greater than 100 µM, a TGI (OVCAR-4 ovarian) greater than 100 µM and a TGI (OVCAR-5 ovarian) greater than 100 µM. For the same molecule, the TGI (OVCAR-8 ovarian) was greater than 100 µM, the TGI (PC-3 prostate) was greater than 100 µM and the TGI (RPMI-8226 leukemia) was greater than 100 µM. The TGI (RXF 393 renal) was greater than 100 µM, the TGI (SF-268 CNS) was greater than 100 µM and the TGI (SF-295 CNS) was greater than 100 µM. The TGI (SF-539 CNS) was greater than 100 µM, the TGI (SK-MEL-2 melanoma) was greater than 100 µM and the TGI (SK-MEL-28 melanoma) was greater than 100 µM. The TGI (SK-MEL-5 melanoma) was greater than 100 µM, the TGI (SK-OV-3 ovarian) was greater than 100 µM and the TGI (SNB-19 CNS) was greater than 100 µM. The TGI (SNB-75 CNS) was greater than 100 µM, the TGI (SW-620 colon) was greater than 100 µM and the TGI (T-47D breast) was greater than 100 µM. For the same molecule, the TGI (TK-10 renal) was 69.5 µM, the TGI (UACC-257 melanoma) was greater than 100 µM and the TGI (UO-31 renal) was greater than 100 µM.

With `O=C(/C(=C/c1ccc([N+](=O)[O-])cc1)SCc1ccccc1)c1ccc(Cl)cc1` the GI50 (786-0 renal) was 1.77 µM, the TGI (786-0 renal) was 3.41 µM and the GI50 (A498 renal) was 13.2 µM. For the same molecule, the TGI (A498 renal) was 28.2 µM, the GI50 (A549 NSCLC) was 15.1 µM and the TGI (A549 NSCLC) was 32.2 µM. For the same molecule, the GI50 (ACHN renal) was 1.97 µM, the TGI (ACHN renal) was 4.16 µM and the GI50 (BT-549 breast) was 2.4 µM. The TGI (BT-549 breast) was 6.39 µM, the GI50 (CCRF-CEM leukemia) was 2.12 µM and the TGI (CCRF-CEM leukemia) was greater than 100 µM. For the same molecule, the GI50 (COLO 205 colon) was 2.14 µM, the TGI (COLO 205 colon) was 5.11 µM and the GI50 (DU-145 prostate) was 3.6 µM. It also gave a TGI (DU-145 prostate) of 13.8 µM, a GI50 (EKVX NSCLC) of 6.77 µM and a TGI (EKVX NSCLC) of 20.2 µM. It also gave a GI50 (HCC-2998 colon) of 1.97 µM, a TGI (HCC-2998 colon) of 3.89 µM and a GI50 (HCT-15 colon) of 2.14 µM. It also gave a TGI (HCT-15 colon) of 5.41 µM, a GI50 (HL-60(TB) leukemia) of 3.21 µM and a TGI (HL-60(TB) leukemia) of 13.6 µM. The GI50 (HOP-62 NSCLC) was 4.52 µM, the TGI (HOP-62 NSCLC) was 17.7 µM and the GI50 (HOP-92 NSCLC) was 2.28 µM. It also gave a TGI (HOP-92 NSCLC) of 9.46 µM, a GI50 (HS 578T breast) of 2.4 µM and a TGI (HS 578T breast) of 8.2 µM. It also gave a GI50 (HT29 colon) of 2.54 µM, a TGI (HT29 colon) of 5.75 µM and a GI50 (IGROV1 ovarian) of 2.86 µM. It also gave a TGI (IGROV1 ovarian) of 11.6 µM, a GI50 (K-562 leukemia) of 2.65 µM and a TGI (K-562 leukemia) greater than 100 µM. For the same molecule, the GI50 (KM12 colon) was 2.34 µM, the TGI (KM12 colon) was 6.91 µM and the GI50 (LOX IMVI melanoma) was 1.69 µM. For the same molecule, the TGI (LOX IMVI melanoma) was 3.12 µM, the GI50 (M14 melanoma) was 2.63 µM and the TGI (M14 melanoma) was 8.59 µM. It also gave a GI50 (MALME-3M melanoma) of 3.12 µM, a TGI (MALME-3M melanoma) of 11.7 µM and a GI50 (MDA-MB-231 breast) of 2.67 µM. It also gave a TGI (MDA-MB-231 breast) of 10.2 µM, a GI50 (MDA-MB-435) of 3.22 µM and a TGI (MDA-MB-435) of 11.4 µM. For the same molecule, the GI50 (MOLT-4 leukemia) was 2.61 µM, the TGI (MOLT-4 leukemia) was greater than 100 µM and the GI50 (NCI-H226 lung) was 4.53 µM. For the same molecule, the TGI (NCI-H226 lung) was 34.1 µM, the GI50 (NCI-H23 lung) was 3.14 µM and the TGI (NCI-H23 lung) was 14.1 µM. It also gave a GI50 (NCI-H460 lung) of 5.34 µM, a TGI (NCI-H460 lung) of 20.3 µM and a GI50 (NCI-H522 lung) of 3.96 µM. For the same molecule, the TGI (NCI-H522 lung) was 10.5 µM, the GI50 (NCI/ADR-RES ovarian) was 3.38 µM and the TGI (NCI/ADR-RES ovarian) was 17.7 µM. For the same molecule, the GI50 (OVCAR-3 ovarian) was 1.91 µM, the TGI (OVCAR-3 ovarian) was 4.29 µM and the GI50 (OVCAR-4 ovarian) was 3.24 µM. For the same molecule, the TGI (OVCAR-4 ovarian) was 13.3 µM, the GI50 (OVCAR-5 ovarian) was 2.98 µM and the TGI (OVCAR-5 ovarian) was 11.9 µM. The GI50 (OVCAR-8 ovarian) was 3.98 µM, the TGI (OVCAR-8 ovarian) was 15.2 µM and the GI50 (PC-3 prostate) was 2.35 µM. It also gave a TGI (PC-3 prostate) of 5.43 µM, a GI50 (RPMI-8226 leukemia) of 1.78 µM and a TGI (RPMI-8226 leukemia) of 5.03 µM. For the same molecule, the GI50 (RXF 393 renal) was 1.68 µM, the TGI (RXF 393 renal) was 3.47 µM and the GI50 (SF-268 CNS) was 3.09 µM. The TGI (SF-268 CNS) was 13.1 µM, the GI50 (SF-295 CNS) was 5.54 µM and the TGI (SF-295 CNS) was 18.9 µM. The GI50 (SF-539 CNS) was 2.64 µM, the TGI (SF-539 CNS) was 8.2 µM and the GI50 (SK-MEL-2 melanoma) was 15.3 µM. For the same molecule, the TGI (SK-MEL-2 melanoma) was 32.5 µM, the GI50 (SK-MEL-28 melanoma) was 4.09 µM and the TGI (SK-MEL-28 melanoma) was 15.3 µM. For the same molecule, the GI50 (SK-MEL-5 melanoma) was 3.41 µM, the TGI (SK-MEL-5 melanoma) was 12.4 µM and the GI50 (SK-OV-3 ovarian) was 14.4 µM. For the same molecule, the TGI (SK-OV-3 ovarian) was 36.4 µM, the GI50 (SN12C renal) was 2.66 µM and the TGI (SN12C renal) was 8.58 µM. It also gave a GI50 (SNB-19 CNS) of 3.59 µM, a TGI (SNB-19 CNS) of 15.6 µM and a GI50 (SNB-75 CNS) of 16 µM. The TGI (SNB-75 CNS) was 35.7 µM, the GI50 (SR leukemia) was 1.76 µM and the TGI (SR leukemia) was 6.63 µM. The GI50 (SW-620 colon) was 1.83 µM, the TGI (SW-620 colon) was 4.15 µM and the GI50 (T-47D breast) was 2.41 µM. For the same molecule, the TGI (T-47D breast) was 7.46 µM, the GI50 (TK-10 renal) was 5.11 µM and the TGI (TK-10 renal) was 18.1 µM. The GI50 (U251 CNS) was 1.88 µM, the TGI (U251 CNS) was 4.09 µM and the GI50 (UACC-257 melanoma) was 6.36 µM. The TGI (UACC-257 melanoma) was 19.4 µM, the GI50 (UACC-62 melanoma) was 2.56 µM and the TGI (UACC-62 melanoma) was 9.12 µM. The GI50 (UO-31 renal) was 1.5 µM and the TGI (UO-31 renal) was 3.3 µM.
